Read-outs that look alike come from different tables or passages of the source.
How the values were obtained:
Aedes aegypti mosquitoes [1] = assay: Drug effect on mosquito fertility (percentage of eggs hatched); assay type: in vivo; conditions: 100 eggs laid 48-96 h post-treatment; IVM 0.1, KCZ 5, RIF 10, RTV 10, PBO 10 μg/ml in blood
Description: The mixtures were rotated at room temperature for 30 min to ensure a uniform drug distribution (Rotator Genie, Scientific Industries, Bohemia, USA). […] Twelve hours later, the tap water was also removed to starve the mosquitoes. […] The mosquitoes were then feeding from blood through the netting and the Parafilm membrane. […] The photoperiod of the climate chamber and the insectary were synchronised. […] The engorged mosquitoes were either directly frozen at -20°C or returned to the climate chamber for certain time periods to assess the PK. […] Blood feeding was done as described above. […] In contrast to the PK experiments, the mosquitoes had unlimited access to water because a moistened oviposition substrate was inserted into the paper cup. […] Any hatched larva was counted and transferred to a rearing tray with a plastic pipette. The fertility was calculated as the percentage of eggs hatched. […] R Foundation for Statistical Computing, http://www.R-project.org, Vienna, Austria). Normality was assessed using the Shapiro-Wilk test. For normally distributed data (mortality, fecundity), group differences were assessed with one-way ANOVA testing, and, where applicable, followed up with Tukey's test. Group differences in fertility (not normally distributed) were evaluated with Kruskal-Wallis one-way analysis of variance, and Wilcoxon rank sum testing as post-hoc.

Aedes aegypti mosquitoes [2] = assay: Drug effect on mosquito fecundity (eggs laid after 96 h); assay type: in vivo; conditions: 4 days; IVM 0.1, KCZ 5, RIF 10, RTV 10, PBO 10 μg/ml in blood; 50 mosquitoes
Description: The mixtures were rotated at room temperature for 30 min to ensure a uniform drug distribution (Rotator Genie, Scientific Industries, Bohemia, USA). […] Twelve hours later, the tap water was also removed to starve the mosquitoes. […] The mosquitoes were then feeding from blood through the netting and the Parafilm membrane. […] The photoperiod of the climate chamber and the insectary were synchronised. […] The engorged mosquitoes were either directly frozen at -20°C or returned to the climate chamber for certain time periods to assess the PK. […] Blood feeding was done as described above. […] In contrast to the PK experiments, the mosquitoes had unlimited access to water because a moistened oviposition substrate was inserted into the paper cup. Fecundity was defined as the total number of eggs laid after 96 h. […] The filter paper served as the oviposition substrate. The cotton wool was soaked with fresh water and covered by a new filter paper after 48, 72, and 96 h post-treatment. After the assay, the eggs were left to mature for 24 h in the insectary. […] R Foundation for Statistical Computing, http://www.R-project.org, Vienna, Austria). Normality was assessed using the Shapiro-Wilk test. For normally distributed data (mortality, fecundity), group differences were assessed with one-way ANOVA testing, and, where applicable, followed up with Tukey's test. Group differences in fertility (not normally distributed) were evaluated with Kruskal-Wallis one-way analysis of variance, and Wilcoxon rank sum testing as post-hoc.

[3] = Pharmacokinetic and drug-drug interaction studies in blood-fed mosquitoes (concentration-time courses, population PK modelling); conditions: for Course / extent of elimination from the mosquitoes: IVM 0.1, KCZ 5, RIF 10, PBO 10 μg/ml in blood, up to 72 h; for Type of elimination kinetics in the mosquito: IVM 0.1, KCZ 5, RIF 10, RTV 10, PBO 10 μg/ml in blood; for Effect of the co-administered CYP modulator on the PK of ivermectin: ivermectin 0.1 μg/ml plus KCZ 5, RIF 10, RTV 10 or PBO 10 μg/ml in blood, 72 h
Aedes aegypti mosquitoes [4] = conditions: IVM 0.1, KCZ 5, RIF 10, RTV 10, PBO 10 μg/ml in blood, 50 mosquitoes

concentration at 0 h ([3]; female, Aedes aegypti, whole mosquito (whole-body extract), oral, CYP modulator concentration (ng/mg mosquito), Treatment RTV + IVM (10 µg/ml RTV, 0.1 µg/ml IVM), Batch 3, 0 h post feeding, single mosquitoes 1-20) [ng/g]	SMILES	Mosquito fertility, Batch 1, hatching rate (Aedes aegypti mosquitoes [1]) [%]	Mosquito fertility, Batch 2, hatching rate (Aedes aegypti mosquitoes [1]) [%]	Mosquito fertility, Batch 3, hatching rate (Aedes aegypti mosquitoes [1]) [%]	Mosquito fecundity, Batch 1, mg eggs (4 days) (Aedes aegypti mosquitoes [2]) [mg eggs]	Mosquito fecundity, Batch 2, mg eggs (4 days) (Aedes aegypti mosquitoes [2]) [mg eggs]	Mosquito fecundity, Batch 3, mg eggs (4 days) (Aedes aegypti mosquitoes [2]) [mg eggs]	Course / extent of elimination from the mosquitoes [3]	Type of elimination kinetics in the mosquito [3]	concentration at 0 h ([3]; female, Aedes aegypti, in vivo, CYP modulator concentration (ng/mg mosquito), Treatment KCZ + IVM (5 µg/ml KCZ, 0.1 µg/ml IVM), Batch 1, 0 h post feeding, single mosquitoes 1-20) [ng/g]	concentration at 72 h ([3]; female, Aedes aegypti, in vivo, CYP modulator concentration (ng/mg mosquito), Treatment KCZ + IVM (5 µg/ml KCZ, 0.1 µg/ml IVM), Batch 1, 72 h post feeding, single mosquitoes 1-20) [ng/g]	Effect of the co-administered CYP modulator on the PK of ivermectin [3]	Effect of the co-administered CYP modulator on the PK of ivermectin ([3]; listed as Ketoconazole)	Share of the dose excreted after 6 h ([3]; ketoconazole 5 μg/ml with ivermectin 0.1 μg/ml in blood) [%]	Mosquito survival (%) (Aedes aegypti mosquitoes [4]; 0 days post feeding)	Mosquito survival (%) (Aedes aegypti mosquitoes [4]; 1 day post feeding)	Tmax ([3]; female, Aedes aegypti, in vivo) [h]
4230	CC(C)c1nc(CN(C)C(=O)N[C@H](C(=O)N[C@@H](Cc2ccccc2)C[C@H](O)[C@H](Cc2ccccc2)NC(=O)OCc2cncs2)C(C)C)cs1 [ritonavir]	87	74	83	38.37	21.29	33.90										
	CC(=O)N1CCN(c2ccc(OCC3COC(Cn4ccnc4)(c4ccc(Cl)cc4Cl)O3)cc2)CC1 (stereo not shown) [ketoconazole]	60	73	82	30.30	22.14	33.56	only few samples could be quantified 36 h post-feeding	first order elimination	639	0	not altered	No effect	75			
	CCCCOCCOCCOCc1cc2c(cc1CCC)OCO2 [piperonyl butoxide]	81	71	86	32.86	20.66	35.34										
	CO[C@H]1/C=C/O[C@@]2(C)Oc3c(C)c(O)c4c(O)c(c(/C=N/N5CCN(C)CC5)c(O)c4c3C2=O)NC(=O)/C(C)=C\C=C\[C@H](C)[C@H](O)[C@@H](C)[C@@H](O)[C@@H](C)[C@H](OC(C)=O)[C@@H]1C [rifampicin]	83	78	79	32.99	21.40	36.14	almost not eliminated during the first 2 days	accumulated over days						100	100	~36

From article PMC7968666, “The pharmacokinetics and drug-drug interactions of ivermectin in Aedes aegypti mosquitoes” (PLoS Pathogens, 2021)
